Test results taken from the NIST ThermoML archive (doi:10.1016/j.jct.2013.10.034).
Numbers after ± are expanded uncertainties.

Test: excess molar enthalpy (molar enthalpy of mixing); xn = mol fraction of the nth substance listed
Details: 298.15 K, 100 kPa, Liquid, Calvet calorimetry

**Q.** What does the source list for `CCCC[N+]1(C)CCCCC1.N#C[N-]C#N` [1-butyl-1-methylpiperidinium dicyanamide] + O?
**A.** excess molar enthalpy (x1 = 0.0639): -0.149 ± 0.0024 kJ/mol; excess molar enthalpy (x1 = 0.0706): -0.169 ± 0.0026 kJ/mol; excess molar enthalpy (x1 = 0.0846): -0.213 ± 0.0031 kJ/mol; excess molar enthalpy (x1 = 0.101): -0.265 ± 0.0038 kJ/mol; excess molar enthalpy (x1 = 0.1186): -0.322 ± 0.0044 kJ/mol; excess molar enthalpy (x1 = 0.1379): -0.384 ± 0.0052 kJ/mol; excess molar enthalpy (x1 = 0.1607): -0.455 ± 0.006 kJ/mol; excess molar enthalpy (x1 = 0.1873): -0.531 ± 0.007 kJ/mol; excess molar enthalpy (x1 = 0.2173): -0.606 ± 0.0079 kJ/mol; excess molar enthalpy (x1 = 0.249): -0.671 ± 0.0087 kJ/mol; excess molar enthalpy (x1 = 0.2797): -0.718 ± 0.0092 kJ/mol; excess molar enthalpy (x1 = 0.3103): -0.75 ± 0.0096 kJ/mol; excess molar enthalpy (x1 = 0.3414): -0.767 ± 0.0098 kJ/mol; excess molar enthalpy (x1 = 0.371): -0.774 ± 0.0099 kJ/mol; excess molar enthalpy (x1 = 0.4062): -0.77 ± 0.0099 kJ/mol; excess molar enthalpy (x1 = 0.4376): -0.758 ± 0.0097 kJ/mol; excess molar enthalpy (x1 = 0.4741): -0.737 ± 0.0095 kJ/mol; excess molar enthalpy (x1 = 0.5173): -0.7 ± 0.009 kJ/mol; excess molar enthalpy (x1 = 0.5418): -0.676 ± 0.0087 kJ/mol; excess molar enthalpy (x1 = 0.5687): -0.647 ± 0.0083 kJ/mol; excess molar enthalpy (x1 = 0.5984): -0.611 ± 0.0079 kJ/mol; excess molar enthalpy (x1 = 0.6314): -0.57 ± 0.0074 kJ/mol; excess molar enthalpy (x1 = 0.6683): -0.52 ± 0.0068 kJ/mol; excess molar enthalpy (x1 = 0.6951): -0.483 ± 0.0064 kJ/mol; excess molar enthalpy (x1 = 0.7241): -0.441 ± 0.0058 kJ/mol; excess molar enthalpy (x1 = 0.7557): -0.394 ± 0.0053 kJ/mol; excess molar enthalpy (x1 = 0.7902): -0.341 ± 0.0046 kJ/mol; excess molar enthalpy (x1 = 0.8081): -0.313 ± 0.0043 kJ/mol; excess molar enthalpy (x1 = 0.8268): -0.283 ± 0.0039 kJ/mol; excess molar enthalpy (x1 = 0.8465): -0.252 ± 0.0036 kJ/mol; excess molar enthalpy (x1 = 0.8671): -0.222 ± 0.0032 kJ/mol; excess molar enthalpy (x1 = 0.8887): -0.187 ± 0.0028 kJ/mol; excess molar enthalpy (x1 = 0.9114): -0.148 ± 0.0023 kJ/mol; excess molar enthalpy (x1 = 0.9354): -0.107 ± 0.0019 kJ/mol; excess molar enthalpy (x1 = 0.9606): -0.0635 ± 0.0014 kJ/mol; excess molar enthalpy (x1 = 0.9872): -0.0225 ± 0.001 kJ/mol

**Q.** For `CCCC[N+]1(C)CCCC1.N#CN=C=[N-]` [1-butyl-1-methylpyrrolidinium dicyanamide] + O, which excess molar enthalpy (x1 = 0.0674) is on record?
**A.** The excess molar enthalpy was -0.2 ± 0.003 kJ/mol.

**Q.** What about the excess molar enthalpy (x1 = 0.0744) of the same molecule?
**A.** Its excess molar enthalpy is -0.227 ± 0.0033 kJ/mol.

**Q.** And the excess molar enthalpy (x1 = 0.0892)?
**A.** The excess molar enthalpy was -0.285 ± 0.004 kJ/mol.

**Q.** What about the excess molar enthalpy (x1 = 0.1064) of the same molecule?
**A.** Its excess molar enthalpy is -0.353 ± 0.0048 kJ/mol.

**Q.** What about the excess molar enthalpy (x1 = 0.1248) of the same molecule?
**A.** The excess molar enthalpy was -0.426 ± 0.0057 kJ/mol.

**Q.** What about the excess molar enthalpy (x1 = 0.145) of the same molecule?
**A.** The excess molar enthalpy was -0.505 ± 0.0067 kJ/mol.

**Q.** What about the excess molar enthalpy (x1 = 0.1688) of the same molecule?
**A.** Its excess molar enthalpy is -0.594 ± 0.0077 kJ/mol.

**Q.** And the excess molar enthalpy (x1 = 0.1964)?
**A.** The excess molar enthalpy was -0.687 ± 0.0089 kJ/mol.

**Q.** And the excess molar enthalpy (x1 = 0.2275)?
**A.** Its excess molar enthalpy is -0.776 ± 0.0099 kJ/mol.

**Q.** What about the excess molar enthalpy (x1 = 0.2604) of the same molecule?
**A.** Its excess molar enthalpy is -0.85 ± 0.011 kJ/mol.

**Q.** And the excess molar enthalpy (x1 = 0.2921)?
**A.** Its excess molar enthalpy is -0.901 ± 0.011 kJ/mol.

**Q.** And the excess molar enthalpy (x1 = 0.3236)?
**A.** Its excess molar enthalpy is -0.934 ± 0.012 kJ/mol.

**Q.** And the excess molar enthalpy (x1 = 0.3554)?
**A.** The excess molar enthalpy was -0.951 ± 0.012 kJ/mol.

**Q.** What about the excess molar enthalpy (x1 = 0.3857) of the same molecule?
**A.** Its excess molar enthalpy is -0.953 ± 0.012 kJ/mol.

**Q.** What about the excess molar enthalpy (x1 = 0.4217) of the same molecule?
**A.** The excess molar enthalpy was -0.943 ± 0.012 kJ/mol.

**Q.** What about the excess molar enthalpy (x1 = 0.4535) of the same molecule?
**A.** The excess molar enthalpy was -0.922 ± 0.012 kJ/mol.

**Q.** What about the excess molar enthalpy (x1 = 0.4906) of the same molecule?
**A.** The excess molar enthalpy was -0.887 ± 0.011 kJ/mol.

**Q.** And the excess molar enthalpy (x1 = 0.5342)?
**A.** The excess molar enthalpy was -0.836 ± 0.011 kJ/mol.

**Q.** And the excess molar enthalpy (x1 = 0.5589)?
**A.** The excess molar enthalpy was -0.804 ± 0.01 kJ/mol.

**Q.** And the excess molar enthalpy (x1 = 0.5859)?
**A.** Its excess molar enthalpy is -0.764 ± 0.0098 kJ/mol.

**Q.** And the excess molar enthalpy (x1 = 0.6157)?
**A.** Its excess molar enthalpy is -0.718 ± 0.0092 kJ/mol.

**Q.** What about the excess molar enthalpy (x1 = 0.6486) of the same molecule?
**A.** The excess molar enthalpy was -0.666 ± 0.0086 kJ/mol.

**Q.** And the excess molar enthalpy (x1 = 0.6853)?
**A.** The excess molar enthalpy was -0.602 ± 0.0078 kJ/mol.

**Q.** What about the excess molar enthalpy (x1 = 0.7119) of the same molecule?
**A.** Its excess molar enthalpy is -0.554 ± 0.0072 kJ/mol.

**Q.** What about the excess molar enthalpy (x1 = 0.7406) of the same molecule?
**A.** Its excess molar enthalpy is -0.5 ± 0.0066 kJ/mol.

**Q.** And the excess molar enthalpy (x1 = 0.7718)?
**A.** The excess molar enthalpy was -0.442 ± 0.0059 kJ/mol.

**Q.** And the excess molar enthalpy (x1 = 0.8057)?
**A.** The excess molar enthalpy was -0.379 ± 0.0051 kJ/mol.

**Q.** What about the excess molar enthalpy (x1 = 0.8233) of the same molecule?
**A.** Its excess molar enthalpy is -0.346 ± 0.0047 kJ/mol.

**Q.** What about the excess molar enthalpy (x1 = 0.8417) of the same molecule?
**A.** Its excess molar enthalpy is -0.315 ± 0.0043 kJ/mol.

**Q.** And the excess molar enthalpy (x1 = 0.8609)?
**A.** Its excess molar enthalpy is -0.277 ± 0.0039 kJ/mol.

**Q.** And the excess molar enthalpy (x1 = 0.881)?
**A.** Its excess molar enthalpy is -0.236 ± 0.0034 kJ/mol.

**Q.** And the excess molar enthalpy (x1 = 0.9021)?
**A.** Its excess molar enthalpy is -0.193 ± 0.0029 kJ/mol.

**Q.** What about the excess molar enthalpy (x1 = 0.9243) of the same molecule?
**A.** The excess molar enthalpy was -0.147 ± 0.0023 kJ/mol.

**Q.** What about the excess molar enthalpy (x1 = 0.9475) of the same molecule?
**A.** The excess molar enthalpy was -0.0997 ± 0.0018 kJ/mol.

**Q.** What about the excess molar enthalpy (x1 = 0.9719) of the same molecule?
**A.** The excess molar enthalpy was -0.0473 ± 0.0012 kJ/mol.

**Q.** And the excess molar enthalpy (x1 = 0.9976)?
**A.** The excess molar enthalpy was -0.0025 ± 0.0009 kJ/mol.
